# Assay results taken from a melting point compilation (Tetko et al.; mined from patent text by program, amines drawn as free bases though some values may be those of a salt).
row,SMILES,melting point [°C]
1,Nc1cc(OCc2cccc(Cl)c2)c(C(=O)O)cc1Cl,182 to 184
2,O=C1c2ccccc2C(=O)N1Cc1ccc(C2=COC(c3cc(Cl)cc(Cl)c3)(C(F)(F)F)C2)cc1Cl (stereo not drawn),99.7
3,COC(=O)CC1CCc2cc(OC)ccc2C1=O (stereo not drawn),110 to 112
4,COc1ccc(CNc2nc(N)n3nc(-c4ccco4)nc3n2)cc1,238 to 239
5,CCCCCCCCCCCCCCCCCCCCC(=S)NCCCN(CC)CC,61
6,CCCCCCCCCCc1nc(N(C)C)nc(OC)c1O,59 to 60
7,OC(c1ccc2c(c1)SCCN2)(C(F)(F)F)C(F)(F)F,99 to 100
8,CC1(C)Oc2cc(Br)sc2C(N2CCCC2=O)C1O (stereo not drawn),162 to 165
9,CCN(CC)CCCN1CCN(c2cc(-c3ccnc(NCc4cccc(OC)c4)n3)cc3ccc(OC)cc23)CC1,156 to 160
10,N#Cc1cccc(OCc2ccccc2)c1[N+](=O)[O-],94 to 95
11,CN1C(=O)N2[C@H](c3cccc(O)c3)c3[nH]c4ccc(Cl)cc4c3C[C@@]2(C)C1=O (racemic),248 to 250
12,CC(=O)C1CCC2C3CCC4CC(C)(O)CCC4(C)C3CCC12C (stereo not drawn),103
13,CC(C)(COC(=O)c1ccc(C(=O)O)cc1)COC(=O)c1ccc(C(=O)O)cc1,287 to 288
14,CCC(CNC(=S)Nc1cccc(-c2c[nH]cn2)c1)N(Cc1ccc(Cl)c(Cl)c1)c1ccc(Br)cn1 (stereo not drawn),140 to 160
15,O=C1c2cc(OC(F)(F)F)ccc2S(=O)(=O)N1CCCCBr,77 to 78
16,CCc1nc2cnc3cc(Br)ccc3c2n1CC1CCN(C(=O)OC(C)(C)C)CC1,208 to 209
17,N#Cc1ccc(N(Cc2ccc(OS(N)(=O)=O)c(Br)c2)n2cnnc2)cc1-c1cc2ccccc2o1,199 to 200
18,Cc1cc(C)c(N2c3ccccc3Sc3ccccc32)c(C)c1,192 to 200
19,COc1cc(Nc2c(C#N)cnc3cc(/C=C/CCN4CCOCC4)ccc23)c(Cl)cc1Cl,88 to 89
20,CN(C)CC1CN(c2ccccc2)NC1=O (stereo not drawn),118 to 119
21,COCCC1CCCCCc2c1oc(=O)c(C(c1ccccc1)C1CC1)c2O (stereo not drawn),78 to 80
22,CC(c1ccc2[nH]c(C(F)(F)F)nc2c1)n1ccnc1 (stereo not drawn),165

row,SMILES,melting point [°C]
1,CC(C)(C)OC(=O)C(CCCCNC(=O)OCc1ccccc1)NC(=O)C(F)(F)F (stereo not drawn),77 to 79
2,Cc1[nH]c2ccc(CCN(C)C3CCOCC3)cc2c1C(=O)OCc1ccccc1,109 to 111
3,CCc1nnc(-c2ccc(OC)cc2)n1-c1cccc(C(F)(F)F)c1,140
4,CCCCCCn1c2ccc(C)cc2c(=O)c2c1cnn2C,80 to 82
5,O=C1c2cccc3c([N+](=O)[O-])c(O)cc(c23)C(=O)N1O,267 to 270
6,Cc1c(N2CC[C@H]([C@@H](C)NC(=O)OC(C)(C)C)C2)c(F)cc2c(=O)n(N)c(=O)n(C3CC3)c12,84 to 86
7,Cc1ccc(C(O)(c2ccccc2)c2ccncc2)cc1 (stereo not drawn),192 to 195
8,Cc1cc(Cl)ccc1-c1cccc2c1OC(CN)CN2C (stereo not drawn),109 to 112
9,COc1nc(NC(=S)NS(=O)(=O)c2ccccc2)nc(OC)n1,148 to 150
10,CCn1c(=O)sc2cc(N)ccc21,132 to 133
11,CCC12CCC(=O)C=C1c1c(cc(OCC#N)c(Cl)c1Cl)C2 (stereo not drawn),171 to 172
12,O=C1c2c(Cl)cccc2-n2cnc(-c3noc(CN4Cc5ccccc5C4)n3)c2[C@@H]2CCN12,218 to 222
13,Fc1ccc2c(CCCN3CCN(c4n[nH]c5ccccc45)CC3)noc2c1,139 to 141
14,COC(=O)c1cccc(C)c1N,27 to 29
15,CC(=C1SC(=O)NC1=O)c1ccc(OCCOc2c(-c3ccc(F)c(F)c3)n(C)c3ccc(F)cc3c2=O)c(Cl)c1,215 to 218
16,COC(=O)C(C)=C(C)C(=O)N(C(=O)c1ccccc1)c1cc(OC)c(Cl)cc1F,142 to 145
17,CCOC(=O)N1CCC(=C2c3ccc(Cl)cc3CCc3c(On4nnc5ccccc54)ccnc32)CC1,182 to 184
18,N#Cc1c2c(c3c(c1N1CCCC1)CCc1ccccc1-3)-c1ccccc1C2,220 to 222
19,OCC(O)COCc1nnc2n1-c1ccc(Cl)cc1C(c1ccccc1)=NC2 (stereo not drawn),130 to 134
20,COC(=O)c1nn2c(C)csc2c1SSc1c(C(=O)OC)nn2c(C)csc12,193 to 194
21,N=C(N)Nc1nc(Cl)cc(Cl)n1,> 360

# Further lines, results first:
row,melting point [°C],SMILES
1,148 to 151,CC1(C)CCC(C)(C)c2cc(C(=O)C(=O)c3ccc(C(=O)O)cc3)ccc21
2,219 to 220,COCC(=O)Nc1nc(NC(=O)COC)c2[nH]cnc2n1
3,121 to 122,CCC(CC)(NC(=O)CCn1cnc(CC#N)c1)c1ccccc1
4,> 225,Cc1sc2c(Br)c3ccccc3c(-c3ccc(OS(=O)(=O)c4ccc(C(=O)O)c(O)c4)c(C4CCCC4)c3)c2c1C
5,165,Cn1c(=O)c(-c2ccccc2)nc2cc3c(cc21)OC(F)(F)O3
6,185 to 186,CCCC(Cl)(Cl)C(NC(=O)c1ccc(Cl)cc1)NC(=C[N+](=O)[O-])Nc1cccnc1 (stereo not drawn)
7,75 to 77,CCN(CC)C(=O)n1ccc(S(=O)(=O)c2ccc(Br)c(C)c2)n1
8,203 to 204,CCC(=O)Nc1c(C#N)cnn1-c1c(Cl)cc(Cl)c(Cl)c1Cl
9,128 to 130,O=c1n(CC(O)(Cn2cncn2)c2ccc(F)cc2F)cnn1-c1ccc(OC(F)(F)F)cc1 (racemic)
10,165 to 167,NC1=NC(c2cccc(Oc3ccccc3)c2)N(c2cccc(Cc3ccccc3)c2)C(N)=N1 (stereo not drawn)
11,> 270,CCCn1c(=O)c2[nH]c(C3CCCC3)nc2n(CCc2ccc(NC(=O)C3CCCC3)cc2)c1=O
12,144 to 145,CC1(C)CC(=O)C(S(=O)Cc2ccc(Cl)cc2)=C(O)C1 (stereo not drawn)
13,177 to 179,O=S(=O)(C(=CNc1ccc(Br)cn1)S(=O)(=O)c1ccccc1)c1ccccc1
14,152 to 153,CCOc1cc(NC(=S)NS(=O)(=O)c2ccc(C)cc2)ccn1
15,144 to 147,COc1ccc(-c2ccc(-c3ccc(C(F)(F)F)cc3)nc2-c2ccc(OC)cc2)cc1
16,202 to 204,c1cc(-n2ccnc2)cc(-n2cnc3cc(-c4ccoc4)cnc32)c1
17,195 to 196,CCOC(=O)CCCn1c2c(c(=O)n3nc(-c4ccccc4)cc13)CN(C1CCCCC1)C2=O
18,117 to 119,CCOC(=O)C1=Cc2c(ccc(Cl)c2I)OC1C(F)(F)F (stereo not drawn)
19,193 to 195,CNc1nc(-c2cccc(NC(=O)c3cccc(OC)c3)c2)c2cc(OC)c(OC)cc2n1
20,164 to 169,CCCCCCCCCCCCCCOc1ccc(NC(=O)Nc2cccc(CCBr)c2)cc1
21,195 to 196,CCOC(=O)c1ccc(C(=O)c2c(N)sc3c2CCN(C(=O)OCc2ccccc2)C3)cc1
22,178 to 180,CCCCCCCCNC(=O)[C@@H]1C[C@H]1c1ccc(NC(=O)/C=C\C(=O)O)cc1 (relative stereo)
23,160 to 163,O=[N+]([O-])c1ccccc1Cc1n[nH]c(Cl)n1
24,80 to 83,Cc1cc2cc(C3CCN(C(=O)C4CC4)CC3)oc2cc1C
25,172 to 173,COc1ccc(-c2cc(=Nc3c(C)cc(C)cc3C)n(C)c(SC)n2)cc1OC
26,194,O=C(Cc1cccc2ccccc12)Nc1cc([C@H]2C[C@@H](NC(=O)c3ccccc3)C2)[nH]n1
27,147 to 149,O=C(O)CCc1cn(-c2cccnc2)c2ccccc12
28,139 to 150,COc1ccccc1N1CCN(CCCCNc2cc(Cl)nnc2OC)CC1

row,melting point [°C],SMILES
1,94 to 95,CCOC(=O)c1cc2cc(OCCCOC)cc([N+](=O)[O-])c2[nH]1
2,217 to 218,CC(=O)NC(Cc1ccccc1)C(=O)Nc1c(C)cccc1C (stereo not drawn)
3,111 to 114,Fc1ccccc1-c1ccc2cccnc2n1
4,> 250,O=c1[nH]cnc2c(Br)sc(Br)c12
5,62 to 65,COc1ccc(Cl)c(CC#N)c1
6,62 to 64,CN(C)CCn1c2c(c3ccccc31)CCSCCC2
7,270,COc1ccc(C(=O)Nc2ccc3ccc(Cl)nc3n2)cn1
8,131,O=C(NCCc1ccccn1)c1ccccc1-c1ccccc1CNS(=O)(=O)c1ccccc1
9,204 to 206,CCCCOc1c(-c2cc(C=CC(=O)O)ccc2OC)cc(C(C)(C)C)cc1C(C)(C)C
10,238 to 239,O=C1SCC(O)=C1Cc1ccc2ccccc2c1
11,98 to 100,CC(=O)c1ccc(C(=O)N2Cc3cccn3Cc3ccccc32)c(Cl)c1
12,118 to 119,COC(=O)C(=O)c1ccc(OCCOc2ccc3ccccc3c2)c(C)c1
13,160 to 162,CC(C)c1ccc2c(c1)C=C(C(=O)O)CC2
14,172 to 173,CCCN(C(=O)OCC(Cl)(Cl)Cl)C1CN(C(=O)Nc2ccc(C(F)(F)F)cc2)N=C1c1ccc(Cl)cc1 (stereo not drawn)
15,71 to 73,CC(=O)N1CCSc2cccc(C)c2C1
16,115 to 116,COc1cc(CSc2ccccn2)nc(N)n1
17,124 to 126,Cc1ccc(N=C2NCCN2)cc1NS(C)(=O)=O
18,60 to 62,COC(=O)CCCSC(=S)NCc1ccc(Cl)cc1
19,148 to 150,COc1cc2c(cc1OC)/C(=C/c1cc(OC)c(OC)c(OC)c1)N(C(=O)Cc1cc(OC)c(OC)c(OC)c1)CC2
20,104 to 106,CC(C)c1cccc(C(C)C)c1NC(=O)N(c1ccccc1)c1nnn(CCCCCCCC=O)n1
21,71 to 72,c1ccc(C(N=C2CCCCC2)c2ccccc2)cc1
22,264,Cn1cc(-c2cc(-c3cnc4[nH]ccc4c3)ccn2)n(-c2ccccc2)c1=O
23,143,Cc1nc(OC(F)F)c(C#N)c(N2CCc3ccccc3CC2)n1
24,237 to 239,O=C(Nc1ccccc1)Nc1cc(Br)nc(Br)c1
25,200 to 202,O=c1nc2n(cc1-c1ccccc1)CCC2
26,> 230,O=C1Cc2cccc(Oc3c(Cl)cccc3Cl)c2N1
27,162 to 164,CC(Br)c1ccc2occ(C#N)c(=O)c2c1 (stereo not drawn)
